Consider two compounds from ChEMBL document CHEMBL1141817, “A novel extracellular diterpenoid with antibacterial activity from the cyanobacterium Nostoc commune” (1999).

By MIC is commonly meant the least concentration at which growth counts as inhibited.

Format in all cases: functional
The subject of one assay is Bacillus cereus. The assay is described as follows: Antibacterial activity against Bacillus cereus ATCC 10702.
Assay [1] concerns Staphylococcus epidermidis. The assay is described as follows: Antibacterial activity against Staphylococcus epidermidis ATCC 12228.
The test system of a further assay is Escherichia coli. The assay is described as follows: Antibacterial activity against Escherichia coli ATCC 25922.

≈ marks a conversion by molar mass, not a printed value.

`O=C(N[C@H](CO)[C@H](O)c1ccc([N+](=O)[O-])cc1)C(Cl)Cl` [CHLORAMPHENICOL]: the MIC came to 8 µg/mL (≈ 24.8 µM) against Bacillus cereus, 4 µg/mL (≈ 12.4 µM) in assay [1] and 64 µg/mL (≈ 198 µM) against Escherichia coli.

As for `C[C@@H]1CC=C2[C@@H](CC[C@H]3C(C)(C)[C@H](O)CC[C@@]23C)[C@]1(C)Cc1cc(C(=O)O)ccc1O` [NOSCOMIN], the MIC in the assay with Bacillus cereus is 32 µg/mL (≈ 75 µM); in assay [1], 8 µg/mL (≈ 18.8 µM); against Escherichia coli it was 128 µg/mL (≈ 300 µM).
